Laboratory results reported in ChEMBL document CHEMBL1122529, “Synthesis of 5-aryl-2H-tetrazoles, 5-aryl-2H-tetrazole-2-acetic acids, and [(4-phenyl-5-aryl-4H-1,2,4-triazol-3-yl)thio]acetic acids as possible superoxide scavengers and antiinflammatory agents” (1984).

What was measured:
Type in all cases: functional
[1] = organism: Rattus norvegicus; test: In Vitro superoxide scavenging activity at a concentration of 1.0 x 10E4 M.
[2] = organism: Rattus norvegicus; test: In Vitro superoxide scavenging activity by the analysis of variance method at concentration of 0.5 x 10E4 M
[3] = organism: Rattus norvegicus; test: In Vitro superoxide scavenging activity by the analysis of variance method at concentration of 0.1 x 10E4 M
[4] = system: Rattus norvegicus; test: Percentage inhibition of reverse passive Arthus reaction was reported at a concentration of 30 mg/kg.
[5] = system: Rattus norvegicus; test: The mean index of reverse passive Arthus reaction was calculated 3 h-postinjection at a concentration of 30 mg/kg.
[6] = system: Rattus norvegicus; test: Percentage inhibition of Carrageenan-induced rat paw edema at a concentration of 32 mg/kg
[7] = organism: Rattus norvegicus; test: In Vitro superoxide scavenging activity by the analysis of variance method at concentration of 2.0 x 10E4 M
[8] = system: Rattus norvegicus; test: Percentage inhibition of Carrageenan-induced rat paw edema at a concentration of 0.3 mg/kg

`c1ccc(-c2nnn[nH]2)cc1` was tested, and the inhibition [1] was 0%.

Work on `O=C(O)Cn1nnc(-c2ccccc2)n1` yielded an inhibition [1] of 0%.

`O=C(O)CSc1nnc(-c2ccc(O)c(O)c2)n1-c1ccccc1` was tested, and the inhibition [2] was 11.8%, the inhibition [3] was 8.3% and the inhibition [1] was 21.5%.

`O=C(O)Cn1nnc(-c2cc(O)c(O)c(O)c2)n1` showed an inhibition in vivo at 30 mg/kg [4] of -28.7%, a Mean index [5] of 52 and an inhibition in vivo at 32 mg/kg [6] of 14%. The inhibition [2] was 55.9%, the inhibition [3] was 15.3% and the inhibition [1] was 78%.

`COc1ccc(-c2nnc(SCC(=O)O)n2-c2ccccc2)cc1` gave an inhibition [1] of 0%.

In the case of `O=C(O)Cn1nnc(-c2ccc(O)c(O)c2)n1`, the inhibition [2] is reported as 7.9%, the inhibition [3] is reported as 0% and the inhibition [1] is reported as 18.8%.

With `COc1cc(-c2nn[nH]n2)cc(OC)c1OC` the inhibition [1] was 0%.

`COc1ccc(-c2nn[nH]n2)cc1OC` gave an inhibition [1] of 0%.

Work on `Oc1ccc(-c2nn[nH]n2)cc1O` yielded an inhibition [2] of 23%, an inhibition [3] of 6.9% and an inhibition [1] of 37.5%.

`CCCCC1C(=O)N(c2ccccc2)N(c2ccccc2)C1=O` [PHENYLBUTAZONE] showed an inhibition in vivo at 32 mg/kg [6] of 47%.

`COc1ccc(-c2nnn(CC(=O)O)n2)cc1` was tested, and the inhibition [1] was 0%.

In the case of `COc1ccc(-c2nnn(CC(=O)O)n2)cc1OC`, the inhibition [1] is reported as 0%.

Work on `Oc1cc(-c2nn[nH]n2)cc(O)c1O` yielded an inhibition in vivo at 30 mg/kg [4] of -5%, a Mean index [5] of 42.6 and an inhibition in vivo at 32 mg/kg [6] of 6%. It also gave an inhibition [2] of 48.4%, an inhibition [3] of 16% and an inhibition [1] of 66.9%.

`Oc1ccc(-c2nn[nH]n2)cc1` gave an inhibition [7] of 0%.

In the case of `COc1cc(-c2nnc(SCC(=O)O)n2-c2ccccc2)cc(OC)c1OC`, the inhibition [1] is reported as 0%.

`C[C@@H]1C[C@H]2[C@@H]3CCC4=CC(=O)C=C[C@]4(C)[C@@]3(F)[C@@H](O)C[C@]2(C)[C@@]1(O)C(=O)CO` [DEXAMETHASONE] gave an inhibition in vivo at 0.3 mg/kg [8] of 69%.

`COc1cc(-c2nnn(CC(=O)O)n2)cc(OC)c1OC` gave an inhibition [1] of 0%.

`O=C(O)CSc1nnc(-c2ccc(O)cc2)n1-c1ccccc1` was tested, and the inhibition [1] was 11.6%.

`O=C(O)Cn1nnc(-c2ccc(O)cc2)n1` was tested, and the inhibition [1] was 0%.

For `COc1ccc(-c2nnc(SCC(=O)O)n2-c2ccccc2)cc1OC`, the inhibition [1] was 0%.

`COc1ccc(-c2nn[nH]n2)cc1` gave an inhibition [1] of 0%.

With `O=C(O)CSc1nnc(-c2cc(O)c(O)c(O)c2)n1-c1ccccc1` the inhibition in vivo at 30 mg/kg [4] was -28.2%, the Mean index [5] was 52 and the inhibition in vivo at 32 mg/kg [6] was 18%. It also gave an inhibition [2] of 22.1%, an inhibition [3] of 16.7% and an inhibition [1] of 65.7%.

`O=C(O)CSc1nnc(-c2ccccc2)n1-c1ccccc1` was tested, and the inhibition [1] was 0%.
